Measurements reported in US20080131511A1, “Pharmaceutical Composition for Treatment of Tear and Salivary Fluid Drying” (Astellas Pharma, Inc., priority 2004, published 2008).
Blank lines part the entries; values can stand above or below the compound they belong to.

Experiments:
Format in all cases: in vivo, mouse (male Balb/c)
sweat gland [1] = assay: Sweating (number of activated sweat glands on footpad) after subcutaneous bolus administration
Procedure: (§1) Male Balb/c mice were used in the test.
(§2) The compound A was dissolved in physiological saline to a concentration of 1, 3, 10, 30 or 100 mg/5 ml, and 5 ml/kg of the drug solution was administered under the dorsal skin. Secreted amounts of salivary and tear fluid were measured just before the administration of compound A and 10, 20, 30, 40 and 50 minutes after the administration. The sweating action was measured 10 minutes after the administration. Also, the growth acceleration action was measured 6 hours after the administration.
as §2, with “Pilocarpine was dissolved” for “The compound A was dissolved”, “concentration of 0.03, 0.1, 0.3, 1, 3 or 10 mg/5 ml, or cevimeline to a concentration of 0.3, 1, 3,” for “concentration of 1, 3,”, “administration of pilocarpine or cevimeline and 10,” for “administration of compound A and 10,”
(§3) The footpad of right hind paw of a mouse anesthetized with diethyl ether was wiped with absorbent cotton, and then 20 μl of each of 5 mg/ml iodine-ethanol solution and 50 mg/ml starch-mineral oil suspension was applied thereto. The number of black spots on footpad was counted and used as the number of activated sweat glands. In the case of the subcutaneous bolus administration test, the number of activated sweat glands 10 minutes after the administration of compound A was measured. In the case of the subcutaneous continuous administration, area under the number of activated sweat glands-versus-time curve (AUC) was calculated.
(§4) All of the test results were expressed as fold increases of the reactions of the drug-administered group versus those of the vehicle-administered group, and comparison between the drug-administered groups and the vehicle-administered group was carried out using Dunnett's t-test. P<0.05 was considered significant. Results

sweat gland [2] = assay: Sweating (activated sweat glands, AUC) during subcutaneous continuous administration (osmotic pump); settings: for sweating: AUC of activated sweat glands
Procedure: as §1
The compound A was dissolved in physiological saline to a concentration of 0.625, 1.25, 2.5, 5.0, 10 or 20 mg/200 μl, and filled each pump (Alzet mini-osmotic pump 2001D, 8 μl/h, 1 day; DURECT Corporation) with about 200 μl portions It means, that is, each pump releases at a rate of 0.025, 0.05, 0.1, 0.2, 0.4 or 0.8 mg compound A/h, respectively. About 5 mm of dorsal epidermis of a mouse anesthetized with diethyl ether was incised, the osmotic pump already filled with the compound A was subcutaneously implanted, and then the skin was stitched. Secreted amounts of salivary and tear fluid and sweating were periodically measured from just before the implantation of pump until 32 hours after the administration. The ornithine decarboxylase activity was measured 10 hours after the implantation. […]
as §3, §4

lacrimal gland [3] = assay: Tear fluid secretion after subcutaneous bolus administration; settings: mice; for dose at which statistically significant acceleration of tear fluid secretion was attained: s.c. bolus
Procedure: as §1, §2
as §2, with “Pilocarpine was dissolved” for “The compound A was dissolved”, “concentration of 0.03, 0.1, 0.3, 1, 3 or 10 mg/5 ml, or cevimeline to a concentration of 0.3, 1, 3,” for “concentration of 1, 3,”, “administration of pilocarpine or cevimeline and 10,” for “administration of compound A and 10,”
(§5) The mouth of a mouse was wiped with a cotton ball whose weight had been measured in advance, and the incremental weight was used as the amount of salivary fluid. Also at the same time, a thread for tear fluid measurement (Zone Quick; Menicon) used on the Schirmer test was inserted into the lower eyelid conjunctival sac, and the length of colored part was measured and used as the amount of tear fluid. From the measurement results, area under the secreted amount-versus-time curve (AUC) was calculated.
as §4

lacrimal gland [4] = assay: Tear fluid secretion during subcutaneous continuous administration (osmotic pump); settings: mice; for Tear fluid: AUC of secreted amount
Procedure: as §1
The compound A was dissolved in physiological saline to a concentration of 0.625, 1.25, 2.5, 5.0, 10 or 20 mg/200 μl, and filled each pump (Alzet mini-osmotic pump 2001D, 8 μl/h, 1 day; DURECT Corporation) with about 200 μl portions It means, that is, each pump releases at a rate of 0.025, 0.05, 0.1, 0.2, 0.4 or 0.8 mg compound A/h, respectively. About 5 mm of dorsal epidermis of a mouse anesthetized with diethyl ether was incised, the osmotic pump already filled with the compound A was subcutaneously implanted, and then the skin was stitched. Secreted amounts of salivary and tear fluid and sweating were periodically measured from just before the implantation of pump until 32 hours after the administration. The ornithine decarboxylase activity was measured 10 hours after the implantation.
Pilocarpine was dissolved in physiological saline to a concentration of 0.039, 0.078, 0.16 or 0.31 mg/200 μl, or cevimeline to a concentration of 0.16, 0.31, 0.63 or 1.3 mg/200 μl, and filled the osmotic pump (Alzet mini-osmotic pump 2001 D, 8 μl/h, 1 day; DURECT Corporation) with about 200 μl portions. It means, that is, each pump releases at a rate of 0.00156, 0.00312, 0.0064 or 0.0124 mg/h (pilocarpine) or 0.0064, 0.0124, 0.0252 or 0.05 mg/h (cevimeline). About 5 mm of dorsal epidermis of a mouse anesthetized with diethyl ether was incised, the osmotic pump already filled with pilocarpine or cevimeline was subcutaneously implanted, and then the skin was stitched. Secreted amounts of salivary and tear fluid and sweating were periodically measured from just before the implantation of pump until 32 hours after the administration. The ornithine decarboxylase activity was measured 10 hours after the implantation.
as §5, §4

[5] = male, Balb/c, mouse, in vivo, sc
[6] = 10 minutes after administration
[7] = s.c. osmotic pump 0.16 mg (0.0064 mg/h)
[8] = s.c. osmotic pump 0.31 mg (0.0124 mg/h)
[9] = mice, s.c. continuous administration

- dose at which statistically significant sweating was found (sweat gland [1]; mice, s.c. bolus): 1 mg/kg
- dose at which sweating acceleration action was found (sweat gland [2]; [5]): 0.31 mg
Structure (SMILES): CC[C@@H]1C(=O)OC[C@@H]1Cc1cncn1C [pilocarpine]
- sweating (sweat gland [1]; mice, s.c. bolus 0.3 mg/kg, 10 minutes after administration): 1.1 ± 0.16 fold increase vs. the vehicle group
- sweating (sweat gland [1]; mice, s.c. bolus 1 mg/kg, 10 minutes after administration): 3.1 ± 0.32 fold increase vs. the vehicle group
- sweating (sweat gland [1]; mice, s.c. bolus 3 mg/kg, 10 minutes after administration (Table 3)): 4.2 ± 0.29 fold increase vs. the vehicle group
- Tear fluid (lacrimal gland [3]; s.c. bolus 0.03 mg/kg, 10 minutes after administration): 0.65 ± 0.19 fold increase vs. the vehicle group
- Tear fluid (lacrimal gland [3]; s.c. bolus 0.1 mg/kg, 10 minutes after administration): 0.80 ± 0.24 fold increase vs. the vehicle group
- Tear fluid (lacrimal gland [3]; s.c. bolus 0.3 mg/kg, 10 minutes after administration): 1.1 ± 0.14 fold increase vs. the vehicle group
- Tear fluid (lacrimal gland [3]; s.c. bolus 1 mg/kg, 10 minutes after administration (Table 3)): 2.7 ± 0.40 fold increase vs. the vehicle group
- dose at which statistically significant acceleration of tear fluid secretion was attained (lacrimal gland [3]; [6]): 1 mg/kg
- Tear fluid (lacrimal gland [4]; s.c. osmotic pump 0.039 mg (0.00156 mg/h)): 0.81 ± 0.02 fold increase vs. vehicle group
- Tear fluid (lacrimal gland [4]; s.c. osmotic pump 0.078 mg (0.00312 mg/h)): 1.1 ± 0.13 fold increase vs. vehicle group
- Tear fluid (lacrimal gland [4]; [7]): 1.1 ± 0.14 fold increase vs. vehicle group
- Tear fluid (lacrimal gland [4]; [8]): 1.1 ± 0.12 fold increase vs. vehicle group

- dose at which statistically significant sweating was found (sweat gland [1]; mice, s.c. bolus): 10 mg/kg
- dose at which sweating acceleration action was found (sweat gland [2]; [5]): 1.25 mg
- sweating acceleration dose relative to dose for secretion acceleration (sweat gland [2]; [5]): 2 times
Structure (SMILES): CC1OC2(CS1)CN1CCC2CC1 (stereo not drawn) [cevimeline]
- sweating (sweat gland [1]; mice, s.c. bolus 3 mg/kg, 10 minutes after administration (Table 4)): 1.5 ± 0.29 fold increase vs. the vehicle group
- sweating (sweat gland [1]; mice, s.c. bolus 10 mg/kg, 10 minutes after administration (Table 4)): 2.5 ± 0.40 fold increase vs. the vehicle group
- sweating (sweat gland [1]; mice, s.c. bolus 30 mg/kg, 10 minutes after administration (Table 4)): 3.1 ± 0.57 fold increase vs. the vehicle group
- Tear fluid (lacrimal gland [3]; s.c. bolus 0.3 mg/kg, 10 minutes after administration (Table 4)): 1.1 ± 0.14 fold increase vs. the vehicle group
- Tear fluid (lacrimal gland [3]; s.c. bolus 1 mg/kg, 10 minutes after administration (Table 4)): 1.1 ± 0.14 fold increase vs. the vehicle group
- Tear fluid (lacrimal gland [3]; s.c. bolus 3 mg/kg, 10 minutes after administration (Table 4)): 1.1 ± 0.16 fold increase vs. the vehicle group
- Tear fluid (lacrimal gland [3]; s.c. bolus 10 mg/kg, 10 minutes after administration (Table 4)): 3.6 ± 0.88 fold increase vs. the vehicle group
- dose at which statistically significant acceleration of tear fluid secretion was attained (lacrimal gland [3]; [6]): 10 mg/kg
- Tear fluid (lacrimal gland [4]; [7]): 1.3 ± 0.05 fold increase vs. the solvent group
- Tear fluid (lacrimal gland [4]; [8]): 1.1 ± 0.09 fold increase vs. the solvent group
- Tear fluid (lacrimal gland [4]; s.c. osmotic pump 0.63 mg (0.0252 mg/h)): 1.4 ± 0.18 fold increase vs. the solvent group
- Tear fluid (lacrimal gland [4]; s.c. osmotic pump 1.25 (0.05 mg/h)): 1.3 ± 0.04 fold increase vs. the solvent group

Structure (SMILES): C=C1CC2(CCN(C)CC2)O[C@H]1C [compound A, (−)-(S)-2,8-dimethyl-3-methylene-1-oxa-8-azaspiro[4.5]decane]
- dose at which a side effect was found (sweat gland [1]; male, Balb/c, mouse, in vivo, 10 min): 30 mg/kg
- dose at which statistically significant sweating was found (sweat gland [1]; mice, s.c. bolus): 30 mg/kg
- sweating dose relative to dose accelerating secretion of salivary and tear fluid (sweat gland [1]; mice, s.c. bolus): 3 times
- sweating (sweat gland [1]; mice, s.c. bolus 3 mg/kg, 10 minutes after administration): 0.69 ± 0.19 fold increase vs. the vehicle group
- sweating (sweat gland [1]; mice, s.c. bolus 10 mg/kg, 10 minutes after administration): 1.3 ± 0.20 fold increase vs. the vehicle group
- sweating (sweat gland [1]; mice, s.c. bolus 30 mg/kg, 10 minutes after administration): 2.0 ± 0.19 fold increase vs. the vehicle group
- sweating (sweat gland [1]; mice, s.c. bolus 100 mg/kg, 10 minutes after administration): 2.2 ± 0.17 fold increase vs. the vehicle group
- dose at which a side effect was not found (sweat gland [1]; mouse, bolus administration): 10 mg/kg
- dose at which sweating acceleration action was found (sweat gland [2]; [9]): 20 mg
- sweating acceleration dose relative to dose for secretion acceleration (sweat gland [2]; [9]): 8 times
- dose up to which sweating acceleration action was not found (sweat gland [2]; mice, s.c. continuous administration, throughout the test period): 10 mg
- sweating (sweat gland [2]; mice, s.c. osmotic pump 0.63 mg (0.025 mg/h)): 0.85 ± 0.06 fold increase vs. the vehicle group
- sweating (sweat gland [2]; mice, s.c. osmotic pump 1.25 mg (0.05 mg/h)): 0.84 ± 0.06 fold increase vs. the vehicle group
- sweating (sweat gland [2]; mice, s.c. osmotic pump 2.5 mg (0.1 mg/h)): 0.89 ± 0.05 fold increase vs. the vehicle group
- sweating (sweat gland [2]; mice, s.c. osmotic pump 5 mg (0.2 mg/h)): 0.88 ± 0.05 fold increase vs. the vehicle group
- sweating (sweat gland [2]; mice, s.c. osmotic pump 10 mg (0.4 mg/h)): 0.90 ± 0.04 fold increase vs. the vehicle group
- sweating (sweat gland [2]; mice, s.c. osmotic pump 20 mg (0.8 mg/h)): 1.7 ± 0.07 fold increase vs. the vehicle group
- Tear fluid (lacrimal gland [3]; s.c. bolus 1 mg/kg, 10 minutes after administration): 1.3 ± 0.11 fold increase vs. the vehicle group
- Tear fluid (lacrimal gland [3]; s.c. bolus 3 mg/kg, 10 minutes after administration): 1.4 ± 0.15 fold increase vs. the vehicle group
- Tear fluid (lacrimal gland [3]; s.c. bolus 10 mg/kg, 10 minutes after administration): 2.2 ± 0.25 fold increase vs. the vehicle group
- dose at which statistically significant acceleration of tear fluid secretion was attained (lacrimal gland [3]; [6]): 10 mg/kg
- dose at which tear fluid secretion acceleration action reached maximum (lacrimal gland [4]; s.c. continuous administration): 5 mg
- dose showing statistically significant tear fluid secretion acceleration (lacrimal gland [4]; s.c. continuous administration, cumulative quantity vs vehicle group): ≥ 2.5 mg
- Tear fluid (lacrimal gland [4]; s.c. osmotic pump 0.63 mg (0.025 mg/h)): 1.3 ± 0.11 fold increase vs. the vehicle group
- Tear fluid (lacrimal gland [4]; s.c. osmotic pump 1.25 mg (0.05 mg/h)): 1.3 ± 0.011 fold increase vs. the vehicle group
- Tear fluid (lacrimal gland [4]; s.c. osmotic pump 2.5 mg (0.1 mg/h)): 1.9 ± 0.10 fold increase vs. the vehicle group
- Tear fluid (lacrimal gland [4]; s.c. osmotic pump 5 mg (0.2 mg/h)): 2.3 ± 0.08 fold increase vs. the vehicle group
- Tear fluid (lacrimal gland [4]; s.c. osmotic pump 10 mg (0.4 mg/h)): 1.6 ± 0.08 fold increase vs. the vehicle group
